According to article PMC12884720, “Gabpα‐Pparγ Complex Determines Glycolytic Capacity and Lactic Acid Homeostasis in Brown Fat” (Advanced Science, 2025):
Residues, ends and D or L forms follow the SMILES beside them. *: point of attachment. FITC = O=C1OC2(c3ccc(O)cc3Oc3cc(O)ccc32)c2ccc(NC(=S)*)cc21

Experiments:
wild‐type mice [1] = test: BAT mass, body weight, tissue mass and morphology of mice after BAT injection of peptide; format: in vivo, wild‐type C57BL/6J mice; conditions: GPCBi 5.5 mg kg^−1 orthotopically into BAT
Method: (§1) The mouse experiments were approved by the Institutional Animal Care and Use Committee of the Institute of Model Animals of Tongji Hospital, Huazhong University of Science and Technology, and were performed in compliance with all relevant ethical regulations (approval number: TJH‐202110044). Unless otherwise noted, the mice were housed in a pathogen‐free and climate‐controlled environment (22–25 °C, 40‐60% humidity) and were given free access to food and water on a 12 h light/dark cycle. Wild‐type C57BL/6J mice were obtained from Beijing Huafukang Bioscience Co., Ltd. (Beijing, China). Gabpa ^flox/flox , Adipoq^Cre , and Ucp1^Cre mice were purchased from Cyagen Biosciences, Inc. (Guangzhou, China). For GPCBi treatment, wild‐type mice were orthotopically injected GPCBi (FITC‐[…]; 5.5 mg kg^−1) or scramble peptide (FITC‐[…]; 5.5 mg kg^−1) into the BAT at room temperature for one week. […] For cold exposure, the mice were caged individually and exposed to a temperature of 10 or 4 °C. The mice were euthanized by CO2 inhalation. For studies with specific diets, five‐week‐old male Gabpα ^Adipo KI mice and their respective littermate control mice were fed a HFD (D12492, Research Diets; 60 kcal% fat, 20 kcal% carbohydrates, and 20 kcal% protein; Medicience Ltd., Jiangsu, China) at ambient temperature. The food was changed every week. Body weight was measured every week, and tissue weights were measured at the time of euthanasia.

[2] = test system: differentiated iBAT‐SVF cells; test: Lactate levels in differentiated iBAT-SVF cells; format: cell-based, C57BL/6 mice; conditions: GPCBi 5 µM
Method: Interscapular BAT‐SVF cells were obtained from eight‐week‐old male C57BL/6 mice. Briefly, BAT was excised, washed in PBS, minced, and digested at 37 °C for 40 min in Hanks solution containing type II collagenase (Sigma, Cat# C‐6885) and 4% bovine serum albumin (BSA). The tissue homogenates were filtered through a 70 µm cell strainer and centrifuged at 1000 rpm for 5 min. The cell pellet was resuspended in DMEM supplemented with 10% FBS (Sigma–Aldrich) and 1% penicillin/streptomycin (P/S) at 37 °C with 5% CO2. The next day, BAT‐SVF cells were immortalized with the SV40 large T antigen according to a published protocol.^[ [32] ^] For iBAT‐SVF cell differentiation, confluent SVF cells were induced to differentiate with medium containing 0.5 mM isobutylmethylxanthine (Sigma, Cat# I‐5879), 125 µM indomethacin (Sigma, Cat# I‐7378), 2 µg mL^−1 dexamethasone (Sigma, Cat# D‐1756), 5 µg mL^−1 insulin (Solarbio, Cat# I‐8040), 1 nM triiodo‐L‐thyronine (Sigma, Cat# T‐2877), and 1 µM rosiglitazone (Cayman, Cat# 71740‐100). After 48 h, the induction medium was replaced with a maintenance cocktail (5 µg mL^−1 insulin, 1 nM triiodo‐L‐thyronine, and 1 µM rosiglitazone) until 6 to 8 days after the induction of differentiation.
Brown fat was homogenized with lysis buffer, ultrasonographically treated on ice at 300 W (on for 3 s, off for 7 s) for 2 min, and then centrifuged at 4 °C at 12 000 × g for 10 min. […] All protocols were followed in accordance with the manufacturer's guidelines.

wild‐type mice [3] = test: Fasting blood glucose; format: in vivo, wild‐type C57BL/6J mice; conditions: GPCBi 5.5 mg kg^−1 orthotopically into BAT; n = 5 (Figure S4h)
Method: as §1, with “For studies with specific diets, five‐week‐old male Gabpα ^Adipo KI mice and their respective littermate control mice were fed a HFD (D12492, Research Diets; 60 kcal% fat, 20 kcal% carbohydrates, and 20 kcal% protein; Medicience Ltd., Jiangsu, China) at ambient temperature. The food was changed every week.” left out

Eno1 promoter = test: Luciferase reporter assay, Eno1-Luc activated by Gabpα and Pparγ/Rxrα; format: cell-based, human; conditions: HEK293T cells, GPCBi 3 µM, n = 3 (Figure 4g)
Method: HEK293T cells were transfected with 100 ng of Pparγ and 100 ng of Rxrα or empty vector together with 100 ng of Gabpα plasmid or the C‐terminal truncation mutants and 200 ng of Eno1 luciferase reporter plasmid in 24‐well plates via Lipofectamine reagent (Yeasen, Shanghai, China, Cat# 40802ES03). For the experiments with the peptides GPCBi or T0070907, the additional peptides GPCBi (3 µM) or T0070907 (10 µM) were added to the HEK293T cells one day after the plasmid complex was transfected. After 48 h of transfection, luciferase activity was measured via the Dual‐Luciferase Reporter Assay System (Vazyme Biotech., Nanjing, China; Cat# DL101‐01). Firefly luciferase reporter gene measurements were normalized to Renilla luciferase activity.

Gabpα‐Pparγ complex = test: SPR competitive binding assay, GPCBi on Gabpα and Pparγ interaction; conditions: equal concentration of Gabpα and different concentrations of GPCBi over immobilized Pparγ (Figure 4b)
Method: SPR analysis was performed using a Biacore T200 system (Cytiva) equipped with a Series S Sensor Chip CM5. Briefly, the ligand Pparγ protein was immobilized to the CM5 Chip via covalent bonds to the amino acid residues in immobilization buffer. Subsequently, different concentrations of Gabpα were diluted in the analyte buffer and were injected into the flowing channel to allow interaction between Pparγ and Gabpα. For a competitive binding assay, an equal concentration of Gabpα and different concentrations of GPCBi were injected into the flowing channel to examine the effect of the interaction between Pparγ and Gabpα. The interacting phase included 120 s of the association phase and 200 s of the dissociation phase. The data were analyzed in a Biacore T200 Evaluation Software (Cytiva).

Gabpα–Pparγ interaction = test: Co-IP of His-Gabpα and Myc-Pparγ with peptide GPCBi; format: binding; conditions: HEK293T cells cotransfected with His‐Gabpα and Myc‐Pparγ, GPCBi 30 µM, 48 h, anti‐His IP (Figure S4c)
wild‐type mice [4] = test: Cold challenge: rectal core body temperature and survival; format: in vivo, wild‐type C57BL/6J mice; conditions: 4 °C
Method: as §1, with “For studies with specific diets, five‐week‐old male Gabpα ^Adipo KI mice and their respective littermate control mice were fed a HFD (D12492, Research Diets; 60 kcal% fat, 20 kcal% carbohydrates, and 20 kcal% protein; Medicience Ltd., Jiangsu, China) at ambient temperature. The food was changed every week.” left out

Compound: CC[C@H](C)[C@H](NC(=O)[C@H](CCCNC(=N)N)NC(=O)[C@H](CS)NC(=O)[C@H](CC(N)=O)NC(=O)[C@H](CC(C)C)NC(=O)[C@H](CC(=O)O)NC(=O)[C@H](CS)NC(=O)[C@H](CCCNC(=N)N)NC(=O)[C@H](CC(=O)O)NC(=O)[C@H](Cc1ccc(O)cc1)NC(=O)[C@@H](NC(=O)[C@H](CC(C)C)NC(=O)[C@H](CCCCN)NC(=O)[C@H](CC(C)C)NC(=O)[C@H](CCCNC(=N)N)NC(=O)[C@@H](NC(=O)[C@@H](NC(=O)[C@H](CCCNC(=N)N)NC(=O)[C@H](CCCNC(=N)N)NC(=O)[C@H](CCCNC(=N)N)NC(=O)[C@H](CCCNC(=N)N)NC(=O)[C@H](CCCNC(=N)N)NC(=O)[C@H](CCC(N)=O)NC(=O)[C@H](CCCNC(=N)N)NC(=O)[C@H](CCCNC(=N)N)NC(=O)[C@H](CCCCN)NC(=O)[C@H](CCCCN)NC(=O)[C@H](CCCNC(=N)N)NC(=O)CNC(=O)[C@H](Cc1ccc(O)cc1)NC(=S)Nc1ccc2c(c1)C(=O)OC21c2ccc(O)cc2Oc2cc(O)ccc21)[C@@H](C)O)[C@@H](C)CC)[C@@H](C)CC)C(=O)N[C@@H](Cc1c[nH]cn1)C(=O)N[C@@H](CCCCN)C(=O)N[C@@H](CCCCN)C(=O)N[C@@H](CO)C(=O)N[C@@H](CCCNC(=N)N)C(=O)N[C@@H](CC(N)=O)C(=O)N[C@@H](CCCCN)C(=O)O [GPCBi] ({FITC}-YGRKKRRQRRRRRTIRLKLIYDRCDLNCRIHKKSRNK-OH; N-terminus and C-terminus assumed)
- BAT morphology (wild‐type mice [1]; one week (Figure S4f)): morphological changes
- body weight or the morphology or tissue mass of IngWAT, EpiWAT, or the liver (wild‐type mice [1]; one week, n = 4 (Figure S4e-g)): no significant changes
- BAT mass (wild‐type mice [1]; room temperature, one week, versus scramble peptide, n = 4 (Figure S4g)): reduced BAT mass
- intracellular lactate levels in brown adipocytes ([2]; first 2 days of adipogenic differentiation (Figure 5l)): decreased
- lactate level in GPCBi‐treated brown adipocytes ([2]; first 2 days of adipogenic differentiation, versus scramble peptide, without Enoblock (Figure 5o)): reduced
- fasting blood glucose levels (wild‐type mice [3]): markedly increased
- Gabpα‐Pparγ complex‐mediated activation of the Eno1 promoter (Eno1 promoter): suppressed
- effect on Gabpα affinity toward Pparγ (Gabpα‐Pparγ complex): dose‐dependently attenuated this interaction
- binding capacity between Gabpα and Pparγ (Gabpα–Pparγ interaction): decreased
- maintenance of core body temperature under acute cold stress (wild‐type mice [4]; control n = 7, GPCBi n = 8 (Figure 4q)): struggled to maintain their core body temperatures
- mortality under acute cold stress (wild‐type mice [4]; control n = 7, GPCBi n = 8 (Figure 4r)): increased mortality
